We go through four molecules from ChEMBL document CHEMBL4808237, “Ginkgonitroside, a new nitrophenyl glycoside and bioactive compounds from Ginkgo biloba leaves controlling adipocyte and osteoblast differentiation” (2021).

A short description of test [1]: Inhibition of adipogenesis in mouse C3H10T1/2 cells assessed as lipid droplet formation at 20 uM by Oil red O staining relative to control. It is filed as functional, C3H 10T1/2. Further details: scale not given: the % may be the effect or the level left.
The test system of another test is C3H 10T1/2. As to the kind of experiment: Induction of differentiation in mouse C3H10T1/2 cells assessed as increase […] by measuring ALP activity at 20 uM relative to control. It is filed as functional.

In the case of `O=[N+]([O-])c1ccc(O[C@@H]2O[C@H](CO)[C@@H](O)[C@H](O)[C@H]2O)cc1`, the Activity in test [1] is reported as 17%.

With `Cc1cc([N+](=O)[O-])ccc1O[C@@H]1O[C@H](CO)[C@@H](O)[C@H](O)[C@H]1O`, in test [1], the Activity is 17%.

As for `COC(=O)c1ccc(O[C@@H]2O[C@H](CO)[C@@H](O)[C@H](O)[C@H]2O)cc1`, the Activity in test [1] is given as 17%.

As for `COc1cc([C@@H]2OC[C@@H]3[C@H]2CO[C@H]3c2ccc(O[C@@H]3O[C@H](CO)[C@@H](O)[C@H](O)[C@H]3O)c(OC)c2)ccc1O`, the “fold change (FC)” value with C3H 10T1/2 came to 1.3.
